Data on 28 molecules can be found in US11208422B2, “Substituted bridged diazepane derivatives and use thereof as TASK-1 and TASK-3 inhibitors” (Bayer Pharma Aktiengesellschaft, priority 2017, dated 2021).

For one assay, the target named is recombinant TASK-3 (Homo sapiens (Human), UniProt Q9NPC2). As to the kind of experiment: Inhibition of recombinant TASK-3 in stably transfected CHO cells (KCl-induced depolarization, voltage-sensitive dye, FLIPR). The class given is cell-based. The settings on record: depolarization induced by 40 mM potassium chloride, some mean values from multiple determinations. On the procedure:
(§1) The compounds of the invention were tested here with administration of 40 mM of potassium chloride in the presence of a voltage-sensitive dye using the method described in detail in the following references [Whiteaker et al., Validation of FLIPR membrane potential dye for high-throughput screening of potassium channel modulators, J. Biomol. Screen. 6 (5), 305-312 (2001); Molecular Devices FLIPR Application Note: Measuring membrane potential using the FLIPR® membrane potential assay kit on Fluorometric Imaging Plate Reader (FLIPR®) systems, http://www.moleculardevices.com/reagents-supplies/assay-kits/ion-channels/flipr-membrane-potential-assay-kits]. The activity of the test substances was determined as their ability to inhibit a depolarization induced in the recombinant cells by 40 mM potassium chloride. The concentration which can block half of this depolarization is referred to as IC50.

The next assay deals with recombinant TASK-1 (Homo sapiens (Human), UniProt O14649). As to the kind of experiment: Inhibition of recombinant TASK-1 in stably transfected CHO cells (KCl-induced depolarization, voltage-sensitive dye, FLIPR). Format: cell-based. The settings on record: depolarization induced by 40 mM potassium chloride, some mean values from multiple determinations. On the procedure:
as §1

recombinant TASK-1, sequence (O14649 whole entry): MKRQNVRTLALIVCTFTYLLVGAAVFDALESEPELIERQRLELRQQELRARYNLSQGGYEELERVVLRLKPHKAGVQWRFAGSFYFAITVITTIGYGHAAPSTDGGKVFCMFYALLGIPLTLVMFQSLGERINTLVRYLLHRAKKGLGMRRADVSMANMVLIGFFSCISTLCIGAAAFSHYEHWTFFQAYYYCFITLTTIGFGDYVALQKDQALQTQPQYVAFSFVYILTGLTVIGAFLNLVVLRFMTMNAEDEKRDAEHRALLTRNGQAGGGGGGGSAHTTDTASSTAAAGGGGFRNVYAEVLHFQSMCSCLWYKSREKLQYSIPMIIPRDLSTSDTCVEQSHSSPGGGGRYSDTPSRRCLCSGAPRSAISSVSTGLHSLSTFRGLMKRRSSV
recombinant TASK-3, sequence (Q9NPC2 whole entry): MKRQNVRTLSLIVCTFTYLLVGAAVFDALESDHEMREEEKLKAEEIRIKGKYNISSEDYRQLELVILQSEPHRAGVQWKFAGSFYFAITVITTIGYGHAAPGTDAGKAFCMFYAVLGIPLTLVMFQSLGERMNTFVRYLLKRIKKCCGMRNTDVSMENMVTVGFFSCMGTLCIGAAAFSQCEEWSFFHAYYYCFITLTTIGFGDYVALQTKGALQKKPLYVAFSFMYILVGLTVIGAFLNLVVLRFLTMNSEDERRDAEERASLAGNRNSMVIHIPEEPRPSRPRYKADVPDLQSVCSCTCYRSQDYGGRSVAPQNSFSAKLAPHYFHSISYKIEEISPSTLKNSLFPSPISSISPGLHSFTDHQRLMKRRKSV

For `CC(C)c1ccc(-c2nc3ncccn3c2CN2CC3CCC2CCN3C(=O)c2cccc(OC(F)F)n2)cc1` (centres unmarked) [Example 45], the half-inhibitory concentration (IC50) (commonly the midpoint of a concentration-inhibition curve) on recombinant TASK-3 is 170 nM; at recombinant TASK-1 it was 2900 nM.
As for `Cc1nonc1C(=O)N1C2CCN(Cc3c(-c4ccc(Cl)cc4)nc4ncccn34)CC1COC2` (racemic) [Example 76, [3-{[2-(4-chlorophenyl)imidazo[1,2-a]pyrimidin-3-yl]methyl}-8-oxa-3,10-diazabicyclo[4.3.1]dec-10-yl](4-methyl-1,2,5-oxadiazol-3-yl)methanone], the IC50 on recombinant TASK-3 came to 66 nM; at recombinant TASK-1 it was 1400 nM.
Turning to `COc1ccc(F)c(C(=O)N2CCC3CCC2CN3Cc2c(-c3ccc(Cl)cc3)nc3ccccn23)n1` (centres unmarked) [Example 38], the IC50 came to 4 nM on recombinant TASK-3 and 250 nM at recombinant TASK-1.
As for `COc1ccc(Cl)c(C(=O)N2CCC3CCC2CN3Cc2c(-c3ccc(Cl)cc3)nc3ncccn23)n1` (centres unmarked) [Example 34], the IC50 at recombinant TASK-3 was found to be 200 nM; at recombinant TASK-1, 4100 nM.
With `COc1ccc(Cl)c(C(=O)N2CCC3CCC(C2)N3Cc2c(-c3ccc(C(C)C)cc3)nc3ncccn23)n1` (centres unmarked) [Example 54], the half-maximal inhibitory concentration (IC50) on recombinant TASK-3 amounted to 290 nM; on recombinant TASK-1, 780 nM.
For `COc1cccc(C(=O)N2C3CCC2CN(Cc2c(-c4ccc(Cl)cc4)nc4ncccn24)CC3)n1` (single isomer, unassigned) [Example 86, [3-{[2-(4-chlorophenyl)imidazo[1,2-a]pyrimidin-3-yl]methyl}-3,9-diazabicyclo[4.2.1]non-9-yl](6-methoxypyridin-2-yl)methanone], the IC50 came to 28 nM on recombinant TASK-3 and 340 nM at recombinant TASK-1.
As for `COc1ccc(Cl)c(C(=O)N2CCC3CCC2CN3Cc2c(-c3ccc(C(C)C)cc3)nc3ncccn23)n1` (centres unmarked) [Example 50], the results for the IC50 at recombinant TASK-3 and on recombinant TASK-1 were 440 nM and 2500 nM, respectively.
Turning to `CC(C)c1ccc(-c2nc3ncccn3c2CN2CC3CCC2CCN3C(=O)c2ccccc2F)cc1` (centres unmarked) [Example 47], the figures for the concentration for half-maximal inhibition (IC50) at recombinant TASK-3 and at recombinant TASK-1 were 180 nM and 3100 nM, respectively.
With `Nc1nonc1C(=O)N1CCC2CCC1CN2Cc1c(-c2ccc(Cl)cc2)nc2ccccn12` (centres unmarked) [Example 29], the IC50 at recombinant TASK-3 came to 4.4 nM; at recombinant TASK-1 it was 660 nM.
As for `O=C(c1ccccc1F)N1C2CCC1CN(Cc1c(-c3ccc(Cl)cc3)nc3ncccn13)CC2` (single isomer, unassigned; (-)) [Example 81, (−)-[3-{[2-(4-chlorophenyl)imidazo[1,2-a]pyrimidin-3-yl]methyl}-3,9-diazabicyclo[4.2.1]non-9-yl](2-fluorophenyl)methanone], the concentration for half-maximal inhibition (IC50) is 9.2 nM at recombinant TASK-3 and 590 nM at recombinant TASK-1.
The matching figures for `COc1ccc(F)c(C(=O)N2C3CCC2CN(Cc2c(-c4ccc(Cl)cc4)nc4ncccn24)CC3)n1` (single isomer, unassigned) [Example 83, [3-{[2-(4-chlorophenyl)imidazo[1,2-a]pyrimidin-3-yl]methyl}-3,9-diazabicyclo[4.2.1]non-9-yl](3-fluoro-6-methoxypyridin-2-yl)methanone]: 17 nM and 410 nM.
With `COc1cccc(C(=O)N2C3CCC2CN(Cc2c(-c4ccc(Cl)cc4)nc4ccccn24)CC3)n1` (single isomer, unassigned) [Example 91, [3-{[2-(4-Chlorophenyl)imidazo[1,2-a]pyridin-3-yl]methyl}-3,9-diazabicyclo[4.2.1]non-9-yl](6-methoxypyridin-2-yl)methanone], the values for the IC50 at recombinant TASK-3 and on recombinant TASK-1 were 5.5 nM and 290 nM, respectively.
As for `COc1ccc(Cl)c(C(=O)N2CCC3CCC2CN3Cc2c(-c3ccc(Cl)cc3)nc3ccccn23)n1` (centres unmarked) [Example 39], the IC50 on recombinant TASK-3 worked out at 13 nM; on recombinant TASK-1, 370 nM.
Consider `COc1ccc(F)c(C(=O)N2CCC3CCC2CN3Cc2c(-c3ccc(C(C)C)cc3)nc3ncccn23)n1` (centres unmarked) [Example 49], for which the results for the IC50 at recombinant TASK-3 and on recombinant TASK-1 were 540 nM and 5500 nM, respectively.
Regarding `O=C(c1cccc(OC(F)(F)F)n1)N1CCC2CCC1CN2Cc1c(-c2ccc(Cl)cc2)nc2ncccn12` (centres unmarked) [Example 65], the concentration for half-maximal inhibition (IC50) at recombinant TASK-3 stood at 220 nM; on recombinant TASK-1 it was 1400 nM.
Take `O=C(c1ccccc1F)N1CCC2CCC1CN2Cc1c(-c2ccc(Cl)cn2)nc2ccccn12` (centres unmarked) [Example 30]: the IC50 amounted to 220 nM on recombinant TASK-3 and 2300 nM at recombinant TASK-1.
For the molecule `COc1ccc(F)c(C(=O)N2CCC3CCC2CN3Cc2c(-c3ccc(Cl)cc3)nc3ncccn23)n1` (single isomer, unassigned) [Example 17, [6-{[2-(4-Chlorophenyl)imidazo[1,2-a]pyrimidin-3-yl]methyl}-2,6-diazabicyclo[3.2.2]non-2-yl](3-fluoro-6-methoxypyridin-2-yl)methanone], the half-inhibitory concentration (IC50) came to 15 nM at recombinant TASK-3 and 3300 nM at recombinant TASK-1.
For the molecule `COc1cccc(C(=O)N2C3CCC2CN(Cc2c(-c4ccc(Cl)cc4)nc4ccccn24)CC3)n1` (racemic) [Example 70, [3-{[2-(4-chlorophenyl)imidazo[1,2-a]pyridin-3-yl]methyl}-3,9-diazabicyclo[4.2.1]non-9-yl](6-methoxypyridin-2-yl)methanone], the IC50 came out at 4.7 nM at recombinant TASK-3 and 305 nM at recombinant TASK-1.
As to `O=C(c1cccc(OC(F)(F)F)n1)N1CCC2CCC1CN2Cc1c(-c2ccc(Cl)cc2)nc2ncccn12` (centres unmarked) [Example 66], the figures for the IC50 on recombinant TASK-3 and at recombinant TASK-1 were 19 nM and 180 nM, respectively.
Take `COc1ccc(F)c(C(=O)N2CCC3CCC2CN3Cc2c(-c3ccc(Cl)cc3)nc3ncccn23)n1` (centres unmarked) [Example 33]: the IC50 on recombinant TASK-3 was 110 nM; at recombinant TASK-1, 2600 nM.
The matching figures for `CC(C)c1ccc(-c2nc3ncccn3c2CN2C3CCC2CN(C(=O)c2cccc(OC(F)F)n2)CC3)cc1` (centres unmarked) [Example 61]: 1000 nM and 9400 nM.
On to `O=C(c1ccccc1F)N1CCC2CCC1CN2Cc1c(-c2ccc(Cl)cc2)nc2ncccn12` (centres unmarked) [Example 25], for which the IC50 was determined as 11 nM on recombinant TASK-3 and 1100 nM on recombinant TASK-1.
For `COc1ccc(Cl)c(C(=O)N2CCC3CCC(C2)N3Cc2c(-c3ccc(C(C)C)cc3)nc3ncccn23)n1` (centres unmarked) [Example 59], the IC50 at recombinant TASK-3 worked out at 680 nM; on recombinant TASK-1, 1100 nM.
Consider `COc1ccc(F)c(C(=O)N2C3CCC2CN(Cc2c(-c4ccc(Cl)cc4)nc4ccccn24)CC3)n1` (single isomer, unassigned) [Example 78, [3-{[2-(4-chlorophenyl)imidazo[1,2-a]pyridin-3-yl]methyl}-3,9-diazabicyclo[4.2.1]non-9-yl](3-fluoro-6-methoxypyridin-2-yl)methanone], for which the IC50 at recombinant TASK-3 stood at 5 nM; on recombinant TASK-1, 220 nM.
Take `O=C(c1ccccc1F)N1CCC2CCC1CN2Cc1c(-c2ccc(Cl)cc2)nc2ccccn12` (centres unmarked) [Example 36]: the IC50 at recombinant TASK-3 came to 1000 nM; at recombinant TASK-1, 30000 nM.
For `O=C(c1ccccc1F)N1C2CCC1CN(Cc1c(-c3ccc(Cl)cc3)nc3ccccn13)CC2` (single isomer, unassigned) [Example 89, [3-{[2-(4-Chlorophenyl)imidazo[1,2-a]pyridin-3-yl]methyl}-3,9-diazabicyclo[4.2.1]non-9-yl](2-fluorophenyl)methanone], in that order: 19 nM and 310 nM.
The matching figures for `COc1cccc(C(=O)N2C3CCC2CN(Cc2c(-c4ccc(C(C)C)cc4)nc4ncccn24)CC3)n1` (centres unmarked) [Example 104]: 31 nM and 600 nM.
For the molecule `O=C(c1ccccc1F)N1C2CCC1CN(Cc1c(-c3ccc(Cl)cc3)nc3ncccn13)CC2` (single isomer, unassigned) [Example 80], the IC50 was 93 nM on recombinant TASK-3 and 4500 nM on recombinant TASK-1.
